These results are taken from patent US8476035B2, “Agent that modulates physiological condition of pests, involved in insect choline acetyltransferase activity” (Sumitomo Chemical Company, Limited, priority 2007, dated 2013).

Experiment [1] addresses cotton aphid choline acetyltransferase (Aphis gossypii, UniProt A0A9P0JF82). Description: Inhibition of cotton aphid choline acetyltransferase activity (DTNB colorimetric in vitro assay). The format is biochemical. Particulars: for inhibition at 10 µM: test compound in DMSO at final concentration 10 μM, relative to DMSO control, read-out: Activity of inhibiting choline acetyltransferase activity (inhibition degree (%) at 10 μM addition). As for the experimental part: Selection of a compound which modulates a choline acetyltransferase activity was performed in a system for measuring and evaluating the choline acetyltransferase activity, the activity being modulated by adding a test compound to an in vitro reaction system using the cotton aphid choline acetyltransferase prepared in Example 7.
As for a measurement of the cotton aphid choline acetyltransferase activity, after the enzymatic reaction of choline acetyltransferase using acetyl-CoA and choline as substrates, free CoA formed by choline acetyltransferase reaction was measured using 5,5′-dithio-bis(2-nitrobenzoic acid) (DTNB) reagent. DTNB reacts with free thiol groups in solution to produce 5-thio-2-nitrobenzoic acid (TNB). TNB is yellow and has absorption maximum at 412 nm. The produced TNB was measured […] to calculate choline acetyltransferase activity.
For measuring the activity, the activity of the aphid choline acetyltransferase was measured when a test compound dissolved in DMSO was contained to a final concentration of 10 μM. In addition, the activity of the aphid choline acetyltransferase was measured when DMSO was contained in place of a test compound. Then, a ratio (%) of a measured value of the activity of the aphid choline acetyltransferase when a test compound dissolved in DMSO was contained, relative to a measured value of the activity of aphid choline acetyltransferase when DMSO was contained in place of the test compound was calculated, and a value obtained by subtracting the calculated value from 100% was adopted as an inhibition degree (%). The results in each test compound are shown in Table 4 in Example 9 together with results of Example 9.
The activity of aphid choline acetyltransferase was measured when a test compound dissolved in DMSO was contained to a final concentration of each concentration of 100 μM, 30 μM, 10 μM, 3 μM, 1 μM, 0.3 μM, 0.1 μM or 0.03 μM. IC50 (μM) was calculated from the result of each concentration at each test compound using a concentration-dependent test analyzing software XL fit (manufactured by idbs). The results are shown in Table 5 in Example 10 together with results of Example 9.

A further experiment deals with Aphis gossypii. The experiment can be described thus: Pesticidal activity test (artificial feed rearing of Aphis gossypii). Format: in vivo. Particulars: 50 ppm test compound in artificial feed; surviving Aphis gossypii counted after six days; significant controlling value (e.g. 30% or more) = pesticidal activity.
Where [2] appears, read: concentrations 0.03-100 μM, XLfit, recombinant cotton aphid enzyme, read-out: Activity of inhibiting choline acetyltransferase activity (IC50).
[3] abbreviates: recombinant cotton aphid enzyme.

Read-outs that look alike come from different tables or passages of the source.

Chain of cotton aphid choline acetyltransferase (A0A9P0JF82 entry or part of it): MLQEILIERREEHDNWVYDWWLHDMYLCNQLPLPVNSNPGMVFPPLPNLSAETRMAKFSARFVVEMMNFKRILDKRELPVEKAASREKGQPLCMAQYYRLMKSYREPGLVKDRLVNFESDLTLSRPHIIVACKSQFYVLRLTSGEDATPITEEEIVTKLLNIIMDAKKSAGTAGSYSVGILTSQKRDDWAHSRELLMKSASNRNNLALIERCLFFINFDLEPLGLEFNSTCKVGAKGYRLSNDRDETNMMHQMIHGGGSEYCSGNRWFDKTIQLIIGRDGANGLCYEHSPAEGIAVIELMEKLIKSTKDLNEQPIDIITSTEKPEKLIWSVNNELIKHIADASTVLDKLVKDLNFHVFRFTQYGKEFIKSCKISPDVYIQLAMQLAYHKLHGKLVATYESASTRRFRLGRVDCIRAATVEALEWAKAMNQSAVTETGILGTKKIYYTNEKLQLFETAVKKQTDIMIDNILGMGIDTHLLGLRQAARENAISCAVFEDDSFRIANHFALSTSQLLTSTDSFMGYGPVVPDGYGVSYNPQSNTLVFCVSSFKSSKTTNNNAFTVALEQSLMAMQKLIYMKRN

As to `CN(C)CCC(c1ccc(Cl)cc1)c1ccccn1.O=C(O)/C=C\C(=O)O` (racemic) [DL-Chlorpheniramine Maleate], the half-inhibitory concentration (IC50) (in general, the concentration at which inhibition is half-maximal) in experiment [1] (setting [2]) is over 100 µM. The same measure, in the same setting: for `COc1cc(N)c(Cl)cc1C(=O)NC1CCN(CCCOc2ccc(F)cc2)CC1OC` (stereo not drawn) [Cisapride] the value was over 100 µM.

For `ICC1CSc2nncn21` (stereo not drawn) [DD03493], in experiment [1] (setting [2]), the half-inhibitory concentration (IC50) is 23.8 µM. In experiment [1] (setting [3]), the inhibition (commonly the change of the read-out against control, counted positive when it falls) at 10 µM turned out to be 49%. For the same molecule, in the experiment on Aphis gossypii, the “Result of Example 9: Determination result of pesticidal activity” value was “Presence of pesticidal”. As for `O/N=C(\CBr)c1ccccc1` [DD05314], the inhibition at 10 µM in experiment [1] (setting [3]) is 50%. Further, the “Result of Example 9: Determination result of pesticidal activity” value in the experiment on Aphis gossypii was “Presence of pesticidal”.

In the case of `CN(C)CCC(=O)c1cccc2ccccc12.Cl` [α-NEDA, 2-(α-naphthoyl)ethyl-dimethylammonium chloride], the IC50 in experiment [1] was determined as 33.5 µM. The molecule `C[N+](C)(C)CCC(=O)c1cccc2ccccc12.[I-]` [α-NETA, 2-(α-naphthoyl)ethyl-trimethylammonium iodide] came in with a half-maximal inhibitory concentration (IC50) in experiment [1] of 1.5 µM.
